Experimental data from ChEMBL document CHEMBL1201862, “PubChem BioAssay data set” (2004).
Active and inactive are the calls of the source.

Tests used:
Cysteine protease ATG4B = Cysteine protease ATG4B (Homo sapiens, UniProt Q9Y4P1); assay type: functional;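 note: Fluorescence-based dose-response confirmation assay measuring inhibition of ATG4B activity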
Phospholipase A2 = Phospholipase A2 (Homo sapiens, UniProt P04054); assay type: functional;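 note: confirmatory dose-response counterscreen on phospholipase A2, testing hits that came from an ultra-high-throughput screen for ATG4B inhibitors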
Phospholipase A2, sequence (P04054 whole entry): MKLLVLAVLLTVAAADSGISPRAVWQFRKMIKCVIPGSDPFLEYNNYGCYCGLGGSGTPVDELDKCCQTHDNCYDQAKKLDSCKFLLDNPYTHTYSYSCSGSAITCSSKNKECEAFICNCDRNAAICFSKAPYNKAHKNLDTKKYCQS

[1] = target: Type-1 angiotensin II receptor (Homo sapiens, UniProt P30556); experiment: AT1 receptor antagonists, dose response, selectivity assay for APJ receptor antagonist project, cell-based, uHTS hits (AID 463214); assay type: functional;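 note: antagonist potency against angiotensin II stimulated AT1 response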
Type-1 angiotensin II receptor, sequence (P30556 whole entry): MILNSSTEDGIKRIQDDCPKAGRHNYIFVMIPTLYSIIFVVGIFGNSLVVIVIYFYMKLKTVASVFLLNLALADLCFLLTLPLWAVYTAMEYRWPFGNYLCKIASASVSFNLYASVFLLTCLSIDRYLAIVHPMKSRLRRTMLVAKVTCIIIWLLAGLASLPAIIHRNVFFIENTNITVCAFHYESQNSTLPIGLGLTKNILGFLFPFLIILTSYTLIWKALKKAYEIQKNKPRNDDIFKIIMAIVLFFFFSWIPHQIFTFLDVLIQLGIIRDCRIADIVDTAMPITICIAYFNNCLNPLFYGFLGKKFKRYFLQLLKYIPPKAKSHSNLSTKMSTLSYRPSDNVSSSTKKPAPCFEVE

Beta-galactosidase = Beta-galactosidase (Escherichia coli, UniProt Q8VNN2); experiment: PubChem AID 485352; assay type: functional
Beta-galactosidase, sequence (Q8VNN2 whole entry): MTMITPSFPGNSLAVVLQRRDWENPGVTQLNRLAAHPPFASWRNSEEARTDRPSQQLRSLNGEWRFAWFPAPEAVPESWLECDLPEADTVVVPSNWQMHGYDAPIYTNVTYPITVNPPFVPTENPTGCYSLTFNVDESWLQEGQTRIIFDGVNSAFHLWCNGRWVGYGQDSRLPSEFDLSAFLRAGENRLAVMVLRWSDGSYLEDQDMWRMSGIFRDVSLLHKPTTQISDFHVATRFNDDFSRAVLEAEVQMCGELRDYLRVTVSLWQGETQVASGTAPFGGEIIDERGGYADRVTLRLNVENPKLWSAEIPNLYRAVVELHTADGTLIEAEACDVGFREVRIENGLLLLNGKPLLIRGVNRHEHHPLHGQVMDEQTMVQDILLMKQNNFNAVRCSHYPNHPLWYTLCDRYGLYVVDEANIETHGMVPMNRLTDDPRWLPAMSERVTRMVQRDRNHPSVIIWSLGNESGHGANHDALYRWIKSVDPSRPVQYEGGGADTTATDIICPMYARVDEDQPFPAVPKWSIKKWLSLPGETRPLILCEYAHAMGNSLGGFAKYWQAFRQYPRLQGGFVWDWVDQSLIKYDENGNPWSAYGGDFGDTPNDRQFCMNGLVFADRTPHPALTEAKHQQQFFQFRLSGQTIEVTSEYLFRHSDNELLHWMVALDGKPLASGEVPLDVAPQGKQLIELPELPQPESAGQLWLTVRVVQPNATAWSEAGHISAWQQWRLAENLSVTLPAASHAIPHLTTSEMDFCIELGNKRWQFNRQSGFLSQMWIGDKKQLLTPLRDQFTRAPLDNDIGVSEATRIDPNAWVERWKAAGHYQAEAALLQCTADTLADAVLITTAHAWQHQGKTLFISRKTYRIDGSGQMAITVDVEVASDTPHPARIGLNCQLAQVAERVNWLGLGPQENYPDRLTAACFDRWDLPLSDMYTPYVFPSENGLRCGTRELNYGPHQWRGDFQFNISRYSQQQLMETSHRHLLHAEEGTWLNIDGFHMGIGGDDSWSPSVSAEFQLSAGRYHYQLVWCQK

[2] = target: T1, Short transient receptor potential channel 4 (Mus musculus, UniProt Q9QUQ5); experiment: mouse TRPC4 channel activators, dose response, cell-based, HEK293 TRPC4/mu-opioid, Fluo-4 calcium (AID 434937); assay type: functional
T1 sequence (Q9QUQ5 whole entry): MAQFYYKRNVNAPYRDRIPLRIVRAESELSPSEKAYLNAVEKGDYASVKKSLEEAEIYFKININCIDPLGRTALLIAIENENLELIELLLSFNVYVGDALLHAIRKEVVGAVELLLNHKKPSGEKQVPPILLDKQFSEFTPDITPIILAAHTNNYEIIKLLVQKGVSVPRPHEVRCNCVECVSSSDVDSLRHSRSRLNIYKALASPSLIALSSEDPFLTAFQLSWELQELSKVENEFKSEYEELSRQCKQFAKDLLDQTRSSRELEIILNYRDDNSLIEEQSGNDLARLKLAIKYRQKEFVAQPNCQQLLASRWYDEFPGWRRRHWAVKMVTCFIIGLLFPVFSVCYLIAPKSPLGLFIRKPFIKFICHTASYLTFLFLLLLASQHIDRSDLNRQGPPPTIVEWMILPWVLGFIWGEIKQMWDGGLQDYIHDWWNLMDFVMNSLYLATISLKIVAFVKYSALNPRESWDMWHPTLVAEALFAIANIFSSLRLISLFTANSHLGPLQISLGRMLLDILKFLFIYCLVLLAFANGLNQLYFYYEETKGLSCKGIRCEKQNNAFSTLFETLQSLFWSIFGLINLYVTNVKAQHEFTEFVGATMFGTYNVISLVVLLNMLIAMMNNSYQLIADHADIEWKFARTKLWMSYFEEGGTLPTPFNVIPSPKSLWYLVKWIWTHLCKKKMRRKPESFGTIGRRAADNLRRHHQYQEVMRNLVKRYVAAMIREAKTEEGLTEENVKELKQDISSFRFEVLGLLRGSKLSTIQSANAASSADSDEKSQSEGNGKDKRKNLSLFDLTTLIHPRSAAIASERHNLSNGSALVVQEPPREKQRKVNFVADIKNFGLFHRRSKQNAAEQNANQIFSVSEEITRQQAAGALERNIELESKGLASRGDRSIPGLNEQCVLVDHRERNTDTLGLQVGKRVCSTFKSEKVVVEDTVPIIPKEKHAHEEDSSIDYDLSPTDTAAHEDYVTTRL

[3] = target: 5-hydroxytryptamine receptor 5A (Homo sapiens, UniProt P47898); experiment: Counterscreen for agonists of OPRM1-OPRD1 heterodimerization: luminescence-based cell-based high throughput dose response assay to identify agonists of 5-hydroxytryptamine (serotonin) 5A receptor (HTR5A). [Related pubchem assays (depositor defined):AID504326, AID504355, AID504692, AID504904, AID504905]; assay type: functional
5-hydroxytryptamine receptor 5A, sequence (P47898 whole entry): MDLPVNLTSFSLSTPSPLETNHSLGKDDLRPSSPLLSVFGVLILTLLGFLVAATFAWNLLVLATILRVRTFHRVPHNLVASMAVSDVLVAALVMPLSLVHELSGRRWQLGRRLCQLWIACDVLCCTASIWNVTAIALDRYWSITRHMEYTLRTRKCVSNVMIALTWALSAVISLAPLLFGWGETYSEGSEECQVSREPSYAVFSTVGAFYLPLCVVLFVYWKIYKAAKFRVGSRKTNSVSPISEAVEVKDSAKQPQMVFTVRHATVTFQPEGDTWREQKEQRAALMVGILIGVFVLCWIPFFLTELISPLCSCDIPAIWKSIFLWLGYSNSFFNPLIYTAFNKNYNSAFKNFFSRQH

[4] = target: Delta-type opioid receptor (Homo sapiens, UniProt P41143); experiment: Counterscreen for agonists of heterodimerization of the mu 1 (OPRM1) and delta 1 (OPRD1) opioid receptors: Luminescence-based cell-based high throughput dose response assay to identify agonists of OPRD1 homodimerization. [Related pubchem assays (depositor defined):AID504326, AID504355, AID504692, AID504904, AID504905]; assay type: functional
Delta-type opioid receptor, sequence (P41143 whole entry): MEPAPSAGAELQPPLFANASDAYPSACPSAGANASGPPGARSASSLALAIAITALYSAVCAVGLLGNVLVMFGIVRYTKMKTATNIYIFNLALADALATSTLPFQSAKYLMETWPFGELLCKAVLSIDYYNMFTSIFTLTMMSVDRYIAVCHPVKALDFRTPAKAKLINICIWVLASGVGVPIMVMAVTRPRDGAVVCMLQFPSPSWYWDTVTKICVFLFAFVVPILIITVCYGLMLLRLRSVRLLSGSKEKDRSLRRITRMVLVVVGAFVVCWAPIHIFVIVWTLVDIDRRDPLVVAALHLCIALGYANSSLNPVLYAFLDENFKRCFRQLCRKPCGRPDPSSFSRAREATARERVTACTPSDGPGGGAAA

Mu-type opioid receptor = Mu-type opioid receptor (Homo sapiens, UniProt P35372); experiment: Counterscreen for agonists of heterodimerization of the mu 1 (OPRM1) and delta 1 (OPRD1) opioid receptors: Luminescence-based cell-based high throughput dose response assay to identify agonists of OPRM1 homodimerization.; assay type: functional;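 note: U2OS cells expressing OPRM1 and beta-arrestin as split beta-galactosidase partners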
Mu-type opioid receptor, sequence (P35372 whole entry): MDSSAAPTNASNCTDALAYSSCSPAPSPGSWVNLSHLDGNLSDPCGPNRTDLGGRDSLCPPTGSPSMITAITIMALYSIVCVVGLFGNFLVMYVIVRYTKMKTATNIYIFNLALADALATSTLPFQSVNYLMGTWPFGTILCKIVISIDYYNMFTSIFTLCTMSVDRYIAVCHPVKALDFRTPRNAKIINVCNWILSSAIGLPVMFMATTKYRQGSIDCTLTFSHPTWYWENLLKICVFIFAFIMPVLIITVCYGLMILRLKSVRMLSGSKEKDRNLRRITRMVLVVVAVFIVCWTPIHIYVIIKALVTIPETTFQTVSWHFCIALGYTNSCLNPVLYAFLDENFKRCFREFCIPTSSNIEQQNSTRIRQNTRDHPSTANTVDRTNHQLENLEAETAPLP

Escherichia coli [5] = experiment: microbe, parasite or virus in culture
Escherichia coli [6] = experiment: microbe, parasite or virus in culture; remark: listed apart in the source
[7] = target: Voltage-gated inwardly rectifying potassium channel KCNH2 (Homo sapiens, UniProt Q12809); conditions: Potency;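 note: confirmatory quantitative high-throughput screen measuring inhibition of hERG channel activity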
Voltage-gated inwardly rectifying potassium channel KCNH2, sequence (Q12809 whole entry): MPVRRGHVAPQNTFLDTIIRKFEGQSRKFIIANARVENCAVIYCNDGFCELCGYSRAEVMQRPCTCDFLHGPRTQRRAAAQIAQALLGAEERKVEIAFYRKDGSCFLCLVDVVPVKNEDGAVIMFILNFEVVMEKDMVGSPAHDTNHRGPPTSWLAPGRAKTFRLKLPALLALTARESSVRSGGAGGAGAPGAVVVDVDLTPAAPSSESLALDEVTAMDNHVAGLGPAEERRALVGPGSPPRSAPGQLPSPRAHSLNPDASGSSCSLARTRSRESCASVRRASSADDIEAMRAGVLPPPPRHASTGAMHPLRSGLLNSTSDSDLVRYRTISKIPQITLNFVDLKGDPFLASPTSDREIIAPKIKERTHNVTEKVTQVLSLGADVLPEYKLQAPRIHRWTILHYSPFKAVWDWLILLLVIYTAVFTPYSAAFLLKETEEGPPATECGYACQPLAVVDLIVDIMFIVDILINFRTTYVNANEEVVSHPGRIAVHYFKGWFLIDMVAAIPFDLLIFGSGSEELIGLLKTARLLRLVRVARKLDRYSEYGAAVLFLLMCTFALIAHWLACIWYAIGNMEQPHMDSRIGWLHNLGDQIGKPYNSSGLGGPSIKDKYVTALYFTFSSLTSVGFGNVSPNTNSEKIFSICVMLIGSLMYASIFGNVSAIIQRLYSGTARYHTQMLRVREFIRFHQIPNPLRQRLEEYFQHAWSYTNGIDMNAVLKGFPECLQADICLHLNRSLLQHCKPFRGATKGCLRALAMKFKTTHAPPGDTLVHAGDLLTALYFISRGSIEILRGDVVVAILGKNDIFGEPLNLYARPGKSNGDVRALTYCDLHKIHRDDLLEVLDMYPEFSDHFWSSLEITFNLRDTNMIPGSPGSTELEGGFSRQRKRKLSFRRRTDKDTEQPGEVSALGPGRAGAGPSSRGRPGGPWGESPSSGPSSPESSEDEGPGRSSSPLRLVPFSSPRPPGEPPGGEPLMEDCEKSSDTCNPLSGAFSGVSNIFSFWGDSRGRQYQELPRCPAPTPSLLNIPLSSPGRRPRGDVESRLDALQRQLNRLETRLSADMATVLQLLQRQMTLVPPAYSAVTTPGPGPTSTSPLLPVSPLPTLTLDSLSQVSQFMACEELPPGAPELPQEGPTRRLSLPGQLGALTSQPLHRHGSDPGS

Vero = Vero cell cytotoxicity, cytotoxicity control for flavivirus capping enzyme inhibitors (AID 588742); assay type: functional; conditions: Chlorocebus sabaeus
Genome polyprotein = Genome polyprotein (dengue virus type 2, UniProt P29990); experiment: Dengue-2 NS5 methyltransferase inhibitors, primary screen, biochemical, confirmation dose response (AID 588689); assay type: functional
[8] = target: Photoreceptor-specific nuclear receptor (Homo sapiens, UniProt Q9Y5X4); assay type: functional, cell-based;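 note: CHO-S cells with Gal4-NCOR and VP16-NR2E3 two-hybrid luciferase reporter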
Photoreceptor-specific nuclear receptor, sequence (Q9Y5X4 whole entry, the tested form may be a part): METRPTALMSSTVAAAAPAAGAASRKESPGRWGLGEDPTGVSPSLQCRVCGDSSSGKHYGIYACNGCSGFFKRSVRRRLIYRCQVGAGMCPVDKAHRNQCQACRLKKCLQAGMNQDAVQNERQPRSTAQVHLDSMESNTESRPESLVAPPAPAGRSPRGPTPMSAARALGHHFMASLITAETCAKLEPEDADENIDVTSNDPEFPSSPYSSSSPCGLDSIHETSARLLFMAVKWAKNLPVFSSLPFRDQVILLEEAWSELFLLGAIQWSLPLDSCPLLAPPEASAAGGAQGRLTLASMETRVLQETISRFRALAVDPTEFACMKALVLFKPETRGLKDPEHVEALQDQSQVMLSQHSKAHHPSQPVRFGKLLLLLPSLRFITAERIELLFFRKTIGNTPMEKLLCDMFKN

[9] = target: T1, Short transient receptor potential channel 4; experiment: mouse TRPC4 channel inhibitors, dose response, cell-based, HEK293 TRPC4/mu-opioid, Fluo-4 calcium (AID 434942); assay type: functional;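 note: potency of inhibitors blocking the TRPC4 calcium response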
[10] = target: T2, Sentrin-specific protease 7 (Homo sapiens, UniProt Q9BQF6); experiment: SENP7 protease inhibitors, SAR follow-up, biochemical, luminescence (AID 504497); assay type: functional
T2 sequence (Q9BQF6 whole entry): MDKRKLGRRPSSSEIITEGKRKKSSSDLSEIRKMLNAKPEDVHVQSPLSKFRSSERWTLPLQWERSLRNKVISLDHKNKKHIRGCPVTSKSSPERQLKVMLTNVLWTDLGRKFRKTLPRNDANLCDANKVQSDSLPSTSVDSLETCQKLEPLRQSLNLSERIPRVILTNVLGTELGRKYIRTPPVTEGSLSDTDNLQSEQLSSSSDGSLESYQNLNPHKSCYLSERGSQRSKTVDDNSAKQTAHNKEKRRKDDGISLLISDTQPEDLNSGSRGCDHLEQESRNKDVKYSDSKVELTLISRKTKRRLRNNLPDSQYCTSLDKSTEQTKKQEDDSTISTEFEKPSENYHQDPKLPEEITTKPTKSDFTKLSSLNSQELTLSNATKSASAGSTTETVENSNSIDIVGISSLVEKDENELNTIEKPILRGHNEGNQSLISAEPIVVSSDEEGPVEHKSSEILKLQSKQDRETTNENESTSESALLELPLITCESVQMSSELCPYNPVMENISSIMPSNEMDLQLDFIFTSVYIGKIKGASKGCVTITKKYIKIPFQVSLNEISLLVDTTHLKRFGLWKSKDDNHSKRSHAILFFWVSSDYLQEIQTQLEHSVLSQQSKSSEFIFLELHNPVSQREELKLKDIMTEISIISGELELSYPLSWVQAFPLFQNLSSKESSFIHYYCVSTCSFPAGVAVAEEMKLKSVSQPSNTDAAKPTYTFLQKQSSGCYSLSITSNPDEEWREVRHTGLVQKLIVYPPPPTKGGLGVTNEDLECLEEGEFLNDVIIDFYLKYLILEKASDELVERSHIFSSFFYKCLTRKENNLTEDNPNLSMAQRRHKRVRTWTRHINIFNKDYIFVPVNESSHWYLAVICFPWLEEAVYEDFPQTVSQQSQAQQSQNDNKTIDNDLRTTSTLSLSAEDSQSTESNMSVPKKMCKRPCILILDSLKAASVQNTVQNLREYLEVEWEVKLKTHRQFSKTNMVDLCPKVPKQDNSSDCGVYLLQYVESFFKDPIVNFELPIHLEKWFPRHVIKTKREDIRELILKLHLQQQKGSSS

[11] = target: T3, Sentrin-specific protease 6 (Homo sapiens, UniProt Q9GZR1); experiment: SAR Analysis of small molecule inhibitors of Sentrin-specific protease 6 (SENP6) using a Luminescent assay. [Related pubchem assays (depositor defined):AID2582, AID2599]; assay type: functional
T3 sequence (Q9GZR1 whole entry): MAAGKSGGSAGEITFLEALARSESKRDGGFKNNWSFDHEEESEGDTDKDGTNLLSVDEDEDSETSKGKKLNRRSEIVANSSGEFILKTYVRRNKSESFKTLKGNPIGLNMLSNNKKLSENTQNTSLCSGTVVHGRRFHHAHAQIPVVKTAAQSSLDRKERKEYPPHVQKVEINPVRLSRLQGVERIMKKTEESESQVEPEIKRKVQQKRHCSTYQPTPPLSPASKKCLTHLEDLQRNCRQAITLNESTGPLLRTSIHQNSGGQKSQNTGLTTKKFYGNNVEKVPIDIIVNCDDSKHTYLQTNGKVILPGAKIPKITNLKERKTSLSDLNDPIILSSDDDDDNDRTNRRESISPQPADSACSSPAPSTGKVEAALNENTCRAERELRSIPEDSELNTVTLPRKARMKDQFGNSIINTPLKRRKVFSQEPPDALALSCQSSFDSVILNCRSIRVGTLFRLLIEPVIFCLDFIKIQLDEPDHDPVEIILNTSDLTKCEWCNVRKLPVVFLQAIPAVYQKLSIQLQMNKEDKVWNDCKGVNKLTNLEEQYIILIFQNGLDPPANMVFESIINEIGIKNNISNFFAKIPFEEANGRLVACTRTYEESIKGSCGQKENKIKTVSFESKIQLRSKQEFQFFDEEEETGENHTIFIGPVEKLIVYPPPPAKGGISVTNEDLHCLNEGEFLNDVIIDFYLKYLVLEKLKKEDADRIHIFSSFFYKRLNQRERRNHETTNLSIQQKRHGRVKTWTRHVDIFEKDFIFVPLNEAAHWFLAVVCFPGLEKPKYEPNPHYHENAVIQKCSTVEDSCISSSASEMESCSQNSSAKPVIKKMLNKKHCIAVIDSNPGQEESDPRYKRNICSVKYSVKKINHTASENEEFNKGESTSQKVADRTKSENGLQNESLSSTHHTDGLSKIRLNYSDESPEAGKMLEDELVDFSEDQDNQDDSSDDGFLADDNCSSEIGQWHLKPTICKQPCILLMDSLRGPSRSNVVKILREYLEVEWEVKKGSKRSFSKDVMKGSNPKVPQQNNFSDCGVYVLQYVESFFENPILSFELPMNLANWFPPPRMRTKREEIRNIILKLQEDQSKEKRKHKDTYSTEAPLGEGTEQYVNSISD

[12] = target: T4, Sentrin-specific protease 8 (Homo sapiens, UniProt Q96LD8); experiment: SENP8 protease inhibitors, SAR follow-up, biochemical, luminescence (AID 504501); assay type: functional
T4 sequence (Q96LD8 whole entry): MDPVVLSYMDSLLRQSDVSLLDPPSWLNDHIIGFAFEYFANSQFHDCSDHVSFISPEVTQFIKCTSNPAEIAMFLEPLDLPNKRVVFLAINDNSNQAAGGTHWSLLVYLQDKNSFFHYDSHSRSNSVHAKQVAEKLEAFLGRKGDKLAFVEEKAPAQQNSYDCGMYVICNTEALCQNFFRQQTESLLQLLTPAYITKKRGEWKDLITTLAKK

Caspase-3 = target: T5, Caspase-3 (Homo sapiens, UniProt P42574); experiment: SAR Analysis of small molecule inhibitors of Sentrin-specific proteases (SENPs) using a Caspase-3 Selectivity assay. [Related pubchem assays (depositor defined):AID2540, AID2599, AID434973, AID489001]; assay type: functional
T5 sequence (P42574 whole entry): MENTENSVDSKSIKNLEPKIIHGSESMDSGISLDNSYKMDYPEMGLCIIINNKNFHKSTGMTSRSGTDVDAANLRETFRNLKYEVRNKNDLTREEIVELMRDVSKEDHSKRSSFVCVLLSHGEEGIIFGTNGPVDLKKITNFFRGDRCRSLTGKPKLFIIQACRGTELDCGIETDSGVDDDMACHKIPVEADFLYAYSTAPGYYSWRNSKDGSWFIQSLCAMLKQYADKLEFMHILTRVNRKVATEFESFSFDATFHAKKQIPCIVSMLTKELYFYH

[13] = target: Heat shock protein HSP 90-alpha (Homo sapiens, UniProt P07900); assay type: functional, organism-based
[14] = Luminescence Cell-Based Dose Retest to Confirm Inhibitors of Cancer Stem Cells. [Related pubchem assays (depositor defined):AID2717, AID2721]; assay type: functional; conditions: Homo sapiens

Cysteine protease ATG4B, sequence (Q9Y4P1 whole entry): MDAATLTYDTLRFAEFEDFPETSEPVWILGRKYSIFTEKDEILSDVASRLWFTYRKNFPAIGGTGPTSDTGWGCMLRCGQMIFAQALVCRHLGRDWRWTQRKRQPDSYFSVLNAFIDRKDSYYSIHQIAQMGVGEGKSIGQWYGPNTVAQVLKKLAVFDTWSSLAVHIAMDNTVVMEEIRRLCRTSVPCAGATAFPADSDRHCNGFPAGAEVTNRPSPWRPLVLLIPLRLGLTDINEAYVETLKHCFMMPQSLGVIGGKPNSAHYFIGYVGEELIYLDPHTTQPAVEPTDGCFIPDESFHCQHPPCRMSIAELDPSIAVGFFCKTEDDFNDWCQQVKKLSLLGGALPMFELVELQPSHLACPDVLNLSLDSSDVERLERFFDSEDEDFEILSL

O=C(CNCC1CCCCC1)Nc1ccccc1N1CCCCC1
IC50 (Cysteine protease ATG4B): 10.8 µM (active)
IC50 (Phospholipase A2): 9.35 µM (active)

Cc1ccc(C(=O)NCC(=O)OCC(=O)c2ccc(C)c([N+](=O)[O-])c2)cc1
IC50 [1]: 36.4 µM (not active)
EC50 (Beta-galactosidase): > 40 µM (inactive)

CCOC(=O)C1(CC2CCCCO2)CCN(Cc2cc(F)ccc2-n2cccn2)CC1 (configuration not stated)
EC50 [2]: 0.473 µM (active)
EC50 [3]: > 92.5 µM (inactive)
EC50 [4]: > 92.5 µM (inactive)
EC50 (Mu-type opioid receptor): > 92.5 µM (inactive)

CSc1cccc(N=C2C(=O)Nc3ccccc32)c1
IC50 [1]: > 40 µM (not active)
EC50 (Beta-galactosidase): > 40 µM (inactive)

COCCCn1c(SCCc2ccccc2)nc2cc(OC)c(OC)cc2c1=N
AC50 (Escherichia coli [5]): 37.6 µM (active)
AC50 (Escherichia coli [6]): 51.3 µM (active)

COC(=O)c1sc(N(C)C)c(C#N)c1-c1ccccc1
IC50 (Cysteine protease ATG4B): 12.4 µM (active)
IC50 (Phospholipase A2): 8.76 µM (active)

Cc1sc2ccccc2c1CC1=NCCN1
AC50 [7]: 35.5 µM (inconclusive)

Cc1ccc(S(=O)(=O)N2[C@@H](c3ccc(Cl)c(Cl)c3)C(C(=O)O)=C[C@H]2CC2CCCC2)cc1
CC50 (Vero): > 40 µM (active)
IC50 (Genome polyprotein): 43.4 µM (active)
IC50 [8]: 6.21 µM (active)

OCC1(Cc2ccc(Cl)cc2)CCN(Cc2ccccc2F)CC1
AC50 (Escherichia coli [5]): 88.9 µM (active)
AC50 (Escherichia coli [6]): 21.9 µM (active)
EC50 [9]: 5.96 µM (active)

O=C(Nc1nc2c(Cl)cccc2s1)C1COc2ccccc2O1 (configuration not stated)
IC50 [10]: 79.7 µM (active)
IC50 [11]: > 99 µM (inactive)
IC50 [12]: > 99 µM (inactive)
IC50 (Caspase-3): > 99 µM (inactive)

O=C(Nc1nc2ccc(Cl)cc2s1)c1cc2ccccc2o1
IC50 [10]: > 99 µM (inactive)
IC50 [11]: > 99 µM (inactive)
IC50 [12]: > 99 µM (inactive)
IC50 (Caspase-3): > 99 µM (inactive)

CC[C@@H]1Cc2cc(O)ccc2C2=C1c1ccc(O)cc1C[C@H]2CC
AC50 [7]: 25.1 µM (inconclusive)
AC50 [13]: 6.32 µM (active)
AC50 [14]: 2.36 µM (active)
